Data taken from the kinase profiling compilation of Christmann-Franck et al. (2016).

Key:
Test in all cases: radiometric filter-binding kinase assay
[1] = target: NTRK1 (human) (UniProt P04629)
[2] = target: PAK6 (human) (UniProt Q9NQU5)
[3] = test system: AKT1 (human), P31749 [S473D]
[4] = target: DYRK2 (human) (UniProt Q92630)
[5] = target: MELK (human) (UniProt Q14680)
[6] = target: MAPKAPK2 (human) (UniProt P49137)
[7] = target: ERBB4 (human) (UniProt Q15303)
[8] = target: MARK1 (human) (UniProt Q9P0L2)
[9] = target: HIPK3 (human) (UniProt Q9H422)
[10] = target: GSK3B (human) (UniProt P49841)
[11] = target: MAP2K2 (human) (UniProt P36507)
[12] = target: PKN2 (human) (UniProt Q16513)
[13] = target: INSR (human) (UniProt P06213)
[14] = target: MAPK12 (human) (UniProt P53778)
[15] = target: EPHA2 (human) (UniProt P29317)
[16] = target: MST4 (human) (UniProt Q9P289)
[17] = target: PRKCZ (human) (UniProt Q05513)
[18] = target: AURKA (human) (UniProt O14965)
[19] = target: STK11 CAB39 STRADA (human) (UniProt Q9Y376+Q7RTN6+Q15831)
[20] = target: IRAK4 (human) (UniProt Q9NWZ3)
[21] = target: PAK4 (human) (UniProt O96013)
[22] = target: MAP3K7 TAB1 (human) (UniProt Q15750+O43318)
[23] = target: MAP2K6 (human) (UniProt P52564)
[24] = target: MARK4 (human) (UniProt Q96L34)
[25] = target: EPHB3 (human) (UniProt P54753)
[26] = target: MAP3K5 (human) (UniProt Q99683)
[27] = target: MARK2 (human) (UniProt Q7KZI7)
[28] = target: MAPK9 (human) (UniProt P45984)
[29] = target: MAP3K11 (human) (UniProt Q16584)
[30] = target: EEF2K (human) (UniProt O00418)
[31] = target: PRKCA (human) (UniProt P17252)
[32] = target: PIM1 (human) (UniProt P11309)
[33] = target: MAP3K9 (human) (UniProt P80192)
[34] = target: BRSK1 (human) (UniProt Q8TDC3)
[35] = target: NUAK1 (human) (UniProt O60285)
[36] = target: MAP3K1 (human) (UniProt Q13233)

Chain of DYRK2 (human) (Q92630 whole entry, looked up): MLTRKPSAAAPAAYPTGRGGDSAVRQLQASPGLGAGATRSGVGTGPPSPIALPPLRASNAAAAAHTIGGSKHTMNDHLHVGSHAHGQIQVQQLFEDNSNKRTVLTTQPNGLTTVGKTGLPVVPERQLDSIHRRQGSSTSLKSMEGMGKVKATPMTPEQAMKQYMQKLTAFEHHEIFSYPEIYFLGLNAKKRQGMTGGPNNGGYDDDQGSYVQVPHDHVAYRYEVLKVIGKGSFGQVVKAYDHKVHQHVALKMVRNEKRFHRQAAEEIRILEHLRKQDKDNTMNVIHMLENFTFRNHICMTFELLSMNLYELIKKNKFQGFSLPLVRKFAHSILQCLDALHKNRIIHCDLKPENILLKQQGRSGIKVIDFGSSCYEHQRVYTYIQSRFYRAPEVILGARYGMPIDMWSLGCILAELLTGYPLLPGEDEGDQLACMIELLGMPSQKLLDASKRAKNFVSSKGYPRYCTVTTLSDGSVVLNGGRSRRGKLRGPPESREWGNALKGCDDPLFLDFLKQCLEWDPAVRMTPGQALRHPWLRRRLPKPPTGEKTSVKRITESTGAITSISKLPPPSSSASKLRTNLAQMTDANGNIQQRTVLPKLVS
Chain of NTRK1 (human) (P04629 whole entry, looked up): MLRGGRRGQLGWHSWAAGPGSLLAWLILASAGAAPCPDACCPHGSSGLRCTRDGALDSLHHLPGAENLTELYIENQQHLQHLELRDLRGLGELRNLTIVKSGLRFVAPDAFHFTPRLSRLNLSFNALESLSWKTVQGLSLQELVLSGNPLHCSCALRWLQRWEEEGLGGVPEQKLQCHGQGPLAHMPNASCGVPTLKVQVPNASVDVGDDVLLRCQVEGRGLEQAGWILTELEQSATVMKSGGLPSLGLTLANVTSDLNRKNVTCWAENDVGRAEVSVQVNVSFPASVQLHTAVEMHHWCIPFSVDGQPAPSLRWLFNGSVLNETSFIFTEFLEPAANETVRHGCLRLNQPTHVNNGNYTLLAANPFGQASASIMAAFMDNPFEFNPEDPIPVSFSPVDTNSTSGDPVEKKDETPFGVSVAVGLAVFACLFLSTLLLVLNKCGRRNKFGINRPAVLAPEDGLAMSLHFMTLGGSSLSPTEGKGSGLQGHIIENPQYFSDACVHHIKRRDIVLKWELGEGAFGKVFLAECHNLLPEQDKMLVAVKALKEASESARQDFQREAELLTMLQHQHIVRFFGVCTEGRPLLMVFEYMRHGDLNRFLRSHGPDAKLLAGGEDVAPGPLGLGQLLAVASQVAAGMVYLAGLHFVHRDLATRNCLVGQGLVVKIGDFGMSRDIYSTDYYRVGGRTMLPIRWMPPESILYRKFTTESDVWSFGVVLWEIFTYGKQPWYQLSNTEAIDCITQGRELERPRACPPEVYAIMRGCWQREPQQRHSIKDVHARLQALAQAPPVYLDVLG
Chain of MAP2K6 (human) (P52564 whole entry, looked up): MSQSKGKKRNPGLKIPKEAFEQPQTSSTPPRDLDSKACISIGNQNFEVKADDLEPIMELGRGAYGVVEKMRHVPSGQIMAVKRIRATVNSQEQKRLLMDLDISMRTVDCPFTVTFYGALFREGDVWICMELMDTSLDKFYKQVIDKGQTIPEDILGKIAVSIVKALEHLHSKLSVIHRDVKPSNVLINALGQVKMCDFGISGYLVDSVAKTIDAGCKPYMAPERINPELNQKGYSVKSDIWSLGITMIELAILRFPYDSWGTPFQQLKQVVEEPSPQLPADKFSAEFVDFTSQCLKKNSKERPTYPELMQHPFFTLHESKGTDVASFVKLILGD
Chain of INSR (human) (P06213 whole entry, looked up): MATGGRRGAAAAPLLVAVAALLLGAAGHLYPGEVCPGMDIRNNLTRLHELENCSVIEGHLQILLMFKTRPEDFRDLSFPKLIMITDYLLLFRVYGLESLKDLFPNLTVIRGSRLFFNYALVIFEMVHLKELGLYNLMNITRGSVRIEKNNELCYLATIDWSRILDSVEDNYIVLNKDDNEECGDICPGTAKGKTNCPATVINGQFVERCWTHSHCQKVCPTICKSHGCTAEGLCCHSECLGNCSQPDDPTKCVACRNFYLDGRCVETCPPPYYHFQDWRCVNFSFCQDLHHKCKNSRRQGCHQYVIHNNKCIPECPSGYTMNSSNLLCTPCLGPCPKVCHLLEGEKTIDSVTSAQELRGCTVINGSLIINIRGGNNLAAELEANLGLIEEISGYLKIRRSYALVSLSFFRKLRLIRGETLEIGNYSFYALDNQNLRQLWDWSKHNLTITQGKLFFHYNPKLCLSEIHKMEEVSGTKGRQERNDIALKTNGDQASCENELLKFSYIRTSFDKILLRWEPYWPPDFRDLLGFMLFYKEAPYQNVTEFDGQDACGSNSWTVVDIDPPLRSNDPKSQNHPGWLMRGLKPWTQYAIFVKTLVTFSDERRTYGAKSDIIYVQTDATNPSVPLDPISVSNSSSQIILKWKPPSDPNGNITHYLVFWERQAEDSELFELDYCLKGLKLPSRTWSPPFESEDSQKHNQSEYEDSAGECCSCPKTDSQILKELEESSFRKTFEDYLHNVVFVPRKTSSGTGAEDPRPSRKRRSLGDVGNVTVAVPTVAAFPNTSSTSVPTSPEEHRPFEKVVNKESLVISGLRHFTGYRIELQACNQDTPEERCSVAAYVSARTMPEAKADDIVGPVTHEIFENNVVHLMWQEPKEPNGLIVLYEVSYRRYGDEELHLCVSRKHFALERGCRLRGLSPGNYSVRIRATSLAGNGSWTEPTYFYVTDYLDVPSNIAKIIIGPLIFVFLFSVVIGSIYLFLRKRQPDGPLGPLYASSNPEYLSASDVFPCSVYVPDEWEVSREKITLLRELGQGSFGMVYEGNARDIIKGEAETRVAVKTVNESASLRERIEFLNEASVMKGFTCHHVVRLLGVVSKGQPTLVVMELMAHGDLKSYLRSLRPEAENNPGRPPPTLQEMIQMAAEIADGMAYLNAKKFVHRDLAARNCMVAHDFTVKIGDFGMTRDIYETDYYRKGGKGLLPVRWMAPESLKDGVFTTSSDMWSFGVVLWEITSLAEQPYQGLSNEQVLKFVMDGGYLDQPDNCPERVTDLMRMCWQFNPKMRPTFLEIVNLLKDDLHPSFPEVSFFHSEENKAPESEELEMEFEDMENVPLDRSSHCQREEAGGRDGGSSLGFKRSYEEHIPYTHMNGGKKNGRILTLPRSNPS
Chain of MST4 (human) (Q9P289 whole entry, looked up): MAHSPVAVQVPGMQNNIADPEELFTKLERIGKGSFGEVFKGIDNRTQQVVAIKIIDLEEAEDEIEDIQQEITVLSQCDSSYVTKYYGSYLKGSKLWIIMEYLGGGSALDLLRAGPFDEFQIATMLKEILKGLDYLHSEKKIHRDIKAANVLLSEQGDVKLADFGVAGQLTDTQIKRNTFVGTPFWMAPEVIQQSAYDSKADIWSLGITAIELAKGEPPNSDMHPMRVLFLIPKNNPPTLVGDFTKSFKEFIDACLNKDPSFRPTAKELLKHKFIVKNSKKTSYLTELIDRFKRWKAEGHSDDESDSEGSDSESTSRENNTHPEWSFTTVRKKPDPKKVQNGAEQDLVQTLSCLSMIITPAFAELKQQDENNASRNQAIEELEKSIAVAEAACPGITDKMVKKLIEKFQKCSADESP
Chain of MAP2K2 (human) (P36507 whole entry, looked up): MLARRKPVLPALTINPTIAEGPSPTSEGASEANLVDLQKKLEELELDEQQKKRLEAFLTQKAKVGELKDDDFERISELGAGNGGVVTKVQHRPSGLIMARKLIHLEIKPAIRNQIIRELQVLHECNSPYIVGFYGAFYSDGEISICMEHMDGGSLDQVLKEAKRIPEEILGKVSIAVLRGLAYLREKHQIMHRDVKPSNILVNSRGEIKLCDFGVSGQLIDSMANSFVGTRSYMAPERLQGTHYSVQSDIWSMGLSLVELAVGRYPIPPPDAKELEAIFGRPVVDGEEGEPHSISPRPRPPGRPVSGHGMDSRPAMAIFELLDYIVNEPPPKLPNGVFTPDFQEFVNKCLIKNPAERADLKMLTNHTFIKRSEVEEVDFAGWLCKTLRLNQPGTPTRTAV
Chain of GSK3B (human) (P49841 whole entry, looked up): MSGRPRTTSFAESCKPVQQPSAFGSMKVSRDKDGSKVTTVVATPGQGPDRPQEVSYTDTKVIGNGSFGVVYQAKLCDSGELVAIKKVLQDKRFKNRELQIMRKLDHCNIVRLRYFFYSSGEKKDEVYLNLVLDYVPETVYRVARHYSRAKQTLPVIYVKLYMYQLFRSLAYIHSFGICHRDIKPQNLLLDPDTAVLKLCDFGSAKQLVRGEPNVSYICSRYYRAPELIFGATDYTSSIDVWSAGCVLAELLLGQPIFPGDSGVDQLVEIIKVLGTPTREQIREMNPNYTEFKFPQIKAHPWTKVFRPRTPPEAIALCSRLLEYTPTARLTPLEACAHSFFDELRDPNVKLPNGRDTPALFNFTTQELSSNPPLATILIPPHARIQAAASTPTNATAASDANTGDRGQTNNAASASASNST

COc1cc(C(=O)N2CCOCC2)c(F)cc1Nc1ncc(C(F)(F)F)c(NC2CC2)n1
residual activity ([1]; compound 1.0 µM): 70%
residual activity ([1]; compound 10.0 µM): 54%
residual activity ([2]; compound 1.0 µM): 94%
residual activity ([2]; compound 10.0 µM): 94%
residual activity ([3]; compound 1.0 µM): 93%
residual activity ([3]; compound 10.0 µM): 97%
residual activity ([4]; compound 1.0 µM): 40%
residual activity ([4]; compound 10.0 µM): 9%
residual activity ([5]; compound 1.0 µM): 91%
residual activity ([5]; compound 10.0 µM): 39%
residual activity ([6]; compound 1.0 µM): 102%
residual activity ([6]; compound 10.0 µM): 97%
residual activity ([7]; compound 1.0 µM): 74%
residual activity ([7]; compound 10.0 µM): 65%
residual activity ([8]; compound 1.0 µM): 88%
residual activity ([8]; compound 10.0 µM): 85%
residual activity ([9]; compound 1.0 µM): 101%
residual activity ([10]; compound 1.0 µM): 73%
residual activity ([10]; compound 10.0 µM): 43%
residual activity ([11]; compound 1.0 µM): 118%
residual activity ([11]; compound 10.0 µM): 98%
residual activity ([12]; compound 1.0 µM): 84%
residual activity ([12]; compound 10.0 µM): 82%
residual activity ([13]; compound 1.0 µM): 50%
residual activity ([13]; compound 10.0 µM): 3%
residual activity ([14]; compound 1.0 µM): 98%
residual activity ([14]; compound 10.0 µM): 96%
residual activity ([15]; compound 1.0 µM): 81%
residual activity ([15]; compound 10.0 µM): 93%
residual activity ([16]; compound 1.0 µM): 89%
residual activity ([16]; compound 10.0 µM): 87%
residual activity ([17]; compound 1.0 µM): 101%
residual activity ([17]; compound 10.0 µM): 86%
residual activity ([18]; compound 1.0 µM): 105%
residual activity ([18]; compound 10.0 µM): 81%
residual activity ([19]; compound 1.0 µM): 88%
residual activity ([19]; compound 10.0 µM): 92%
residual activity ([20]; compound 1.0 µM): 90%
residual activity ([20]; compound 10.0 µM): 93%
residual activity ([21]; compound 1.0 µM): 85%
residual activity ([21]; compound 10.0 µM): 42%
residual activity ([22]; compound 1.0 µM): 11%
residual activity ([22]; compound 10.0 µM): 2%
residual activity ([23]; compound 1.0 µM): 71%
residual activity ([23]; compound 10.0 µM): 31%
residual activity ([24]; compound 1.0 µM): 95%
residual activity ([24]; compound 10.0 µM): 52%
residual activity ([25]; compound 1.0 µM): 91%
residual activity ([25]; compound 10.0 µM): 105%
residual activity ([26]; compound 1.0 µM): 66%
residual activity ([26]; compound 10.0 µM): 13%
residual activity ([27]; compound 1.0 µM): 100%
residual activity ([27]; compound 10.0 µM): 81%
residual activity ([28]; compound 1.0 µM): 108%
residual activity ([28]; compound 10.0 µM): 84%
residual activity ([29]; compound 1.0 µM): 35%
residual activity ([29]; compound 10.0 µM): 9%
residual activity ([30]; compound 1.0 µM): 103%
residual activity ([30]; compound 10.0 µM): 107%
residual activity ([31]; compound 1.0 µM): 96%
residual activity ([31]; compound 10.0 µM): 101%
residual activity ([32]; compound 1.0 µM): 101%
residual activity ([32]; compound 10.0 µM): 94%
residual activity ([33]; compound 1.0 µM): 39%
residual activity ([33]; compound 10.0 µM): 7%
residual activity ([34]; compound 1.0 µM): 85%
residual activity ([34]; compound 10.0 µM): 69%
residual activity ([35]; compound 1.0 µM): 41%
residual activity ([35]; compound 10.0 µM): 9%
residual activity ([36]; compound 1.0 µM): 90%
residual activity ([36]; compound 10.0 µM): 109%

Cc1ccc2c(c1)C(=O)[C@@]1(O)CCN(c3ccccc3)C1=N2
residual activity ([1]; compound 10.0 µM): 103%
residual activity ([2]; compound 10.0 µM): 83%
residual activity ([3]; compound 10.0 µM): 95%
residual activity ([3]; compound 100.0 µM): 88%
residual activity ([4]; compound 10.0 µM): 76%
residual activity ([5]; compound 10.0 µM): 96%
residual activity ([6]; compound 10.0 µM): 82%
residual activity ([6]; compound 100.0 µM): 80%
residual activity ([7]; compound 10.0 µM): 87%
residual activity ([8]; compound 10.0 µM): 96%
residual activity ([9]; compound 10.0 µM): 103%
residual activity ([10]; compound 10.0 µM): 88%
residual activity ([10]; compound 100.0 µM): 66%
residual activity ([11]; compound 10.0 µM): 81%
residual activity ([12]; compound 10.0 µM): 95%
residual activity ([13]; compound 10.0 µM): 95%
residual activity ([14]; compound 10.0 µM): 99%
residual activity ([14]; compound 100.0 µM): 80%
residual activity ([15]; compound 10.0 µM): 109%
residual activity ([16]; compound 10.0 µM): 99%
residual activity ([17]; compound 10.0 µM): 108%
residual activity ([18]; compound 10.0 µM): 99%
residual activity ([19]; compound 10.0 µM): 81%
residual activity ([20]; compound 10.0 µM): 86%
residual activity ([21]; compound 10.0 µM): 90%
residual activity ([22]; compound 10.0 µM): 96%
residual activity ([23]; compound 10.0 µM): 94%
residual activity ([24]; compound 10.0 µM): 94%
residual activity ([25]; compound 10.0 µM): 107%
residual activity ([26]; compound 10.0 µM): 91%
residual activity ([27]; compound 10.0 µM): 93%
residual activity ([28]; compound 10.0 µM): 88%
residual activity ([29]; compound 10.0 µM): 73%
residual activity ([30]; compound 10.0 µM): 83%
residual activity ([31]; compound 10.0 µM): 103%
residual activity ([31]; compound 100.0 µM): 75%
residual activity ([32]; compound 10.0 µM): 87%
residual activity ([33]; compound 10.0 µM): 101%
residual activity ([34]; compound 10.0 µM): 106%
residual activity ([35]; compound 10.0 µM): 97%
residual activity ([36]; compound 10.0 µM): 100%
